Source: US20240390295A1, “METHODS FOR TREATING DEPRESSION” (JANSSEN PHARMACEUTICA NV, priority 2020, published 2024)
Several values for one entry are separate records, joined by “and”; a condition that tells them apart may be missing. Equal entries are not always repeated.

System: adult patients (aged 18-64 years) with TRD
Assay: Clinician-reported adverse events: incidence and recurrence by Week 1/Week 4 frequency, pooled studies 1 and 2 (ESK + OAD)
Type: in vivo, human
From the text: Data were pooled from adult patients (aged 18-64 years) with TRD. Patients had recurrent or single-episode (>2 years) MDD (DSM-5), a Clinician-Rated Inventory of Depressive Symptomatology score of >3 and a total Montgomery-Åsberg Depression Rating Scale (MADRS) score of >2. At screening, depressive symptoms had been non-responsive to adequate trials of ≥1 and ≤5 commercially available OAD in the current depressive episode. Non response was further confirmed by a prospective trial of a different OAD lasting ≥4 weeks and during the screening phase.
In brief, study 1 was a double-blind, placebo-controlled relapse prevention trial comparing the efficacy of ESK versus placebo nasal spray, both in conjunction with a Food and Drug Administration (FDA)-approved OAD, in delaying relapse of depressive symptoms in patients with TRD who were either in stable remission or stable response after four months' treatment with ESK in conjunction with a FDA-approved OAD. Study 2 was an open-label, multicenter study that assessed the long-term safety and efficacy of ESK in conjunction with an FDA-approved OAD in patients with TRD.
The analysis was limited to the two doses of ESK (56 mg and 84 mg) approved for use by the FDA for patients with TRD. Patients received ESK (56 or 84 mg) in conjunction with an OAD twice weekly during the induction phase (Weeks 1-4); once weekly during Weeks 5-8 of the optimization phase: either once weekly or every other week during the remainder of the 12-week optimization phase and the maintenance phase (individualized according to the severity of depressive symptoms [MADRS total score≤/>12] and tolerability).
Patients were monitored for >90 minutes after ESK administration at each treatment session, after which time they could leave the clinical site at the clinician's discretion. AEs were monitored and reported, and safety assessments, including clinical laboratory tests and physical examinations, were conducted throughout the study. Clinician-reported AEs were categorized as mild, moderate, or severe based on clinical judgement (Table 1).
This analysis included any treatment sessions in which patients received ESK (either open-label or blinded). The occurrence and severity of AEs were assessed within the following timeframes: Month 1 (Week 1 and Weeks 2-4), Month 2 (Weeks 5-8), Months 3-6 and Months 6-12. Severity of clinician-reported AEs were scored as 0 (no AE), 1 (mild), 2 (moderate), and 3 (severe). To examine AEs in individual patients over time, only patients who received at least one ESK dose in the following period were included in the analyses of each respective period. Thus, patient data were retained in (i) Week 1 if the patient received ≥1 ESK dose in Weeks 2-4, (ii) Weeks 2-4 if the patient received ≥1 ESK dose in Weeks 5-8, (iii) Weeks 5-8 if the patient received ≥1 ESK dose in Months 3-6, and (iv) Months 3-6 if the patient received ≥1 ESK dose in Months 6-12.
The five most commonly reported treatment-emergent events occurring with ESK plus OAD therapy (dissociation, dizziness, nausea, sedation, and vertigo) were evaluated, each of which has an incidence ≥5% and at least a 2-fold greater incidence than with placebo plus an OAD. 14 Increases in BP were also examined.
Week 1 and Week 4 were set a priori as index weeks because they are the beginning and end of the induction period. Frequencies and maximum-reported severities of AEs reported during these index weeks served as stratifying variables by which to examine recurrence and severities of AE recurrences in future timeframes.

[1] = Weeks 2-4, overall rate for timeframe
[2] = Weeks 5-8, overall rate for timeframe
[3] = human, in vivo, other: nasal spray, 1 week

`CN[C@]1(c2ccccc2Cl)CCCCC1=O` [esketamine, (S)-2-(2-chlorophenyl)-2-(methylamino)cyclohexanone] was tested, and the Clinician-reported dissociation (Weeks 2-4, AE once in Week 1) was 48.2%, the “Clinician-reported increased blood pressure” value (Weeks 2-4, AE once in Week 1) was 56.5% and the Clinician-reported sedation (Weeks 2-4, AE once in Week 1) was 36.8%. The Dizziness (Weeks 2-4, AE once in Week 1) was 51.9%, the Nausea (Weeks 2-4, AE once in Week 1) was 28.6% and the Vertigo (Weeks 2-4, AE once in Week 1) was 67.4%. The Clinician-reported dissociation (Weeks 2-4, AE twice in Week 1) was 86.5%, the “Clinician-reported increased blood pressure” value (Weeks 2-4, AE twice in Week 1) was 77.8% and the Clinician-reported sedation (Weeks 2-4, AE twice in Week 1) was 70.6%. It also gave a Dizziness (Weeks 2-4, AE twice in Week 1) of 86.4%, a Nausea (Weeks 2-4, AE twice in Week 1) of 61.9% and a Vertigo (Weeks 2-4, AE twice in Week 1) of 90.3%. The Clinician-reported dissociation (Weeks 2-4, No AE in Week 1) was 5.6% and 5.7%, the “Clinician-reported increased blood pressure” value (Weeks 2-4, No AE in Week 1) was 2.4% and the Clinician-reported sedation (Weeks 2-4, No AE in Week 1) was 2.1%. It also gave a Dizziness (Weeks 2-4, No AE in Week 1) of 6.3%, a Nausea (Weeks 2-4, No AE in Week 1) of 5.3% and a Vertigo (Weeks 2-4, No AE in Week 1) of 5.5%. For the same molecule, the Anxiety (Weeks 2-4, None in Week 1) was 1.3%, the “Feeling Drunk” value (Weeks 2-4, None in Week 1) was 0.4% and the Hypoesthesia (Weeks 2-4, None in Week 1) was 3.7%. It also gave a Lethargy (Weeks 2-4, None in Week 1) of 1.0%, a Vomiting (Weeks 2-4, None in Week 1) of 2.4% and an Anxiety (Weeks 2-4, Once in Week 1) of 11.8%. For the same molecule, the “Feeling Drunk” value (Weeks 2-4, Once in Week 1) was 30.8%, the Hypoesthesia (Weeks 2-4, Once in Week 1) was 54.3% and the Lethargy (Weeks 2-4, Once in Week 1) was 71.4%. The Vomiting (Weeks 2-4, Once in Week 1) was 31.0%, the Anxiety (Weeks 2-4, Overall) was 1.7% and the “Feeling Drunk” value (Weeks 2-4, Overall) was 1.9%. The Hypoesthesia (Weeks 2-4, Overall) was 7.2%, the Lethargy (Weeks 2-4, Overall) was 1.5% and the Vomiting (Weeks 2-4, Overall) was 3.3%. The Anxiety (Weeks 2-4, Twice in Week 1) was 100%, the “Feeling Drunk” value (Weeks 2-4, Twice in Week 1) was 90.9% and the Hypoesthesia (Weeks 2-4, Twice in Week 1) was 76.2%. The Lethargy (Weeks 2-4, Twice in Week 1) was 0%, the Vomiting (Weeks 2-4, Twice in Week 1) was 0% and the Clinician-reported dissociation [1] was 16.1%. The “Clinician-reported increased blood pressure” value [1] was 5.2%, the Clinician-reported sedation [1] was 4.1% and the Dizziness [1] was 19.2%. It also gave a Nausea [1] of 9.4%, a Vertigo [1] of 15.0% and a Clinician-reported dissociation (Weeks 5-8, AE once in Week 1) of 29.8%. For the same molecule, the “Clinician-reported increased blood pressure” value (Weeks 5-8, AE once in Week 1) was 40.9%, the Clinician-reported sedation (Weeks 5-8, AE once in Week 1) was 22.2% and the Dizziness (Weeks 5-8, AE once in Week 1) was 30.8%. For the same molecule, the Nausea (Weeks 5-8, AE once in Week 1) was 16.1%, the Vertigo (Weeks 5-8, AE once in Week 1) was 45.2% and the Clinician-reported dissociation (Weeks 5-8, AE twice in Week 1) was 60.0%. The “Clinician-reported increased blood pressure” value (Weeks 5-8, AE twice in Week 1) was 55.6%, the Clinician-reported sedation (Weeks 5-8, AE twice in Week 1) was 52.9% and the Dizziness (Weeks 5-8, AE twice in Week 1) was 62.5%. The Nausea (Weeks 5-8, AE twice in Week 1) was 30.0%, the Vertigo (Weeks 5-8, AE twice in Week 1) was 67.6% and the Clinician-reported dissociation (Weeks 5-8, No AE in Week 1) was 6.1%. The “Clinician-reported increased blood pressure” value (Weeks 5-8, No AE in Week 1) was 1.9%, the Clinician-reported sedation (Weeks 5-8, No AE in Week 1) was 1.2% and the Dizziness (Weeks 5-8, No AE in Week 1) was 3.7%. It also gave a Nausea (Weeks 5-8, No AE in Week 1) of 1.7%, a Vertigo (Weeks 5-8, No AE in Week 1) of 3.0% and an Anxiety (Weeks 5-8, None in Week 1) of 0.8%. For the same molecule, the “Feeling Drunk” value (Weeks 5-8, None in Week 1) was 0.1%, the Hypoesthesia (Weeks 5-8, None in Week 1) was 1.6% and the Lethargy (Weeks 5-8, None in Week 1) was 1.1%. For the same molecule, the Vomiting (Weeks 5-8, None in Week 1) was 1.5%, the Anxiety (Weeks 5-8, Once in Week 1) was 5.9% and the “Feeling Drunk” value (Weeks 5-8, Once in Week 1) was 16.7%. It also gave a Hypoesthesia (Weeks 5-8, Once in Week 1) of 20.7%, a Lethargy (Weeks 5-8, Once in Week 1) of 40.0% and a Vomiting (Weeks 5-8, Once in Week 1) of 21.1%. The Anxiety (Weeks 5-8, Overall) was 1.0%, the “Feeling Drunk” value (Weeks 5-8, Overall) was 1.6% and the Hypoesthesia (Weeks 5-8, Overall) was 3.4%. The Lethargy (Weeks 5-8, Overall) was 1.2%, the Vomiting (Weeks 5-8, Overall) was 1.8% and the Anxiety (Weeks 5-8, Twice in Week 1) was 50.0%. For the same molecule, the “Feeling Drunk” value (Weeks 5-8, Twice in Week 1) was 90.9%, the Hypoesthesia (Weeks 5-8, Twice in Week 1) was 58.3% and the Lethargy (Weeks 5-8, Twice in Week 1) was 0%. For the same molecule, the Vomiting (Weeks 5-8, Twice in Week 1) was 0%, the Clinician-reported dissociation [2] was 12.6% and the “Clinician-reported increased blood pressure” value [2] was 3.9%. It also gave a Clinician-reported sedation [2] of 2.6%, a Dizziness [2] of 12.5% and a Nausea [2] of 4.0%. For the same molecule, the Vertigo [2] was 9.9%, the “increased blood pressure reported” value (all subsequent postdose monitoring periods, no increased blood pressure in week 1) was less than 4% and the “dissociation as an AE into months 3-6” value (dissociation twice in week 1) was greater than 50%. For the same molecule, the “dizziness at 3-6 months” value (dizziness not reported in week 1 (exception)) was 11.6%, the “patients who did not have increased blood pressure during week 1” value [3] was 95.7% and the “patients who did not report dissociation during week 1” value [3] was 83.2%. The “patients who did not report nausea during week 1” value [3] was 86.0%, the “impact of dose (56 or 84 mg modal dose) on AE recurrence” value (most pronounced with dissociation and dizziness) was “small dose effect” and the dissociation occurred (remainder of induction period, no dissociation in week 1) was less than 10%. The nausea reported (subsequent postdose monitoring periods, no nausea in week 1) was less than 6%.
